The source of these data is patent publication US8580829B2 (Boehringer Ingelheim International GmbH, priority 2010, dated 2013).

Test [1] concerns the target T1, recombinant human FLAP protein (Homo sapiens, UniProt P20292).
T1 construct: made in house; host or cells: Sf9 insect cells (100,000 x g membrane fraction)
T1 sequence (P20292 1-161): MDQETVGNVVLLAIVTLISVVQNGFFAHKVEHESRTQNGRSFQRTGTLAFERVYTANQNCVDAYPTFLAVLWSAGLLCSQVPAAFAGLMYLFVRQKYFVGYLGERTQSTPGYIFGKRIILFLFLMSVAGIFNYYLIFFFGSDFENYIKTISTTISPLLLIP
The experiment in a line: FLAP binding assay (Scintillation Proximity Assay, displacement of [125I]L-691,831). Particulars: recombinant human FLAP membranes, [125I]L-691,831 probe; read-out: FLAP SPA IC50. As to the method:
Cell pellets produced from sf9 insect cells expressing recombinant human FLAP protein are resuspended in buffer A [15 mM Tris-HCl (pH 7.5), 2 mM MgCl2, 0.3 mM EDTA, 1 mM PMSF]. The cells are lysed with a Dounce homogenizer and the material is centrifuged at 10,000×g for 10 minutes. The supernatant is then collected and centrifuged at 100,000×g for 60 minutes. To prepare membrane protein for an assay, an aliquot of the 100,000×g pellet is resuspended in 1 ml of buffer A, Dounce homogenized, and finally subjected to polytron mixing (30 seconds). Membrane protein (25 μl, 5 μg) is mixed with WGA SPA beads (Amersham) and stirred for 1 h.

The test system of test [2] is synthesis of LTB4 in human whole blood. In words: human whole blood LTB4 production inhibition assay. Format: cell-based. Particulars: heparinized human whole blood, calcimycin 20 μM, read-out: hWB LTB4 IC50. The protocol:
Compounds are additionally tested in a human whole blood assay to determine their ability to inhibit the synthesis of LTB4 in a cellular system. Compounds are combined with heparinized human whole blood and incubated for 15 minutes at 37° C. Calcimycin (20 μM final, prepared in phosphate-buffered saline, pH 7.4) is then added and the mixture is incubated for another 30 minutes at 37° C. The samples are centrifuged for 5 min at low speed (1500×g) and the plasma layer is removed. Plasma LTB4 concentrations are then measured using an antibody-based homogenous time-resolved fluorescence method (CisBio, Bedford, Mass.).

Where two headings read alike, the source gives them in different places.

Usually IC50 stands for the concentration at which inhibition is half-maximal. In the case of `CNC(=O)Cn1cc(-c2nc(C3(c4ccc(-c5cnc(N)nc5)cc4)CCC3)no2)cn1` [Example 81, 2-[4-(3-{1-[4-(2-Amino-pyrimidin-5-yl)-phenyl]-cyclobutyl}-1,2,4-oxadiazol-5-yl)-pyrazol-1-yl]-N-methyl-acetamide], the IC50 in test [1] is 6.4 nM; in test [2] (Homo sapiens), 130 nM.
The like results for `Nc1ncc(-c2ccc(C3(c4noc(-c5cncn5C5COC5)n4)CCC3)cc2)cn1` [Example 264, 5-(4-{1-[5-(3-Oxetan-3-yl-3H-imidazol-4-yl)-[1,2,4]oxadiazol-3-yl]-cyclobutyl}-phenyl)-pyrimidin-2-ylamine] were, in that order, 8.3 nM and 280 nM.
Regarding `Cc1cc(-c2ccc(C3(c4noc(-c5cnn(C)c5)n4)CCC3)cc2)cnc1N` [Example 221, 3-Methyl-5-(4-{1-[5-(1-methyl-1H-pyrazol-4-yl)-[1,2,4]oxadiazol-3-yl]-cyclobutyl}-phenyl)-pyridin-2-ylamine], the IC50 in test [1] was determined as 1.9 nM; in test [2] (Homo sapiens), 47 nM.
As for `CNC(=O)Cn1cccc(-c2nc(C3(c4ccc(-c5cnc(N)nc5)cc4)CCC3)no2)c1=O` [Example 118, 2-[3-(3-{1-[4-(2-amino-pyrimidin-5-yl)-phenyl]-cyclobutyl}-1,2,4-oxadiazol-5-yl)-2-oxo-2H-pyridin-1-yl]-N-methyl-acetamide], the figures for the 50% inhibitory concentration (IC50) in test [1] and in test [2] (Homo sapiens) were 21 nM and 1700 nM, respectively.
The like results for `CCN(CC)C(=O)Cn1cc(-c2nc(C3(c4ccc(-c5cnc(N)nc5)cc4)CCC3)no2)cn1` [Example 131, 2-[4-(3-{1-[4-(2-Amino-pyrimidin-5-yl)-phenyl]-cyclobutyl]-1,2,4-oxadiazol-5-yl)-pyrazol-1-yl]-N,N-diethyl-acetamide] were, in that order, 3.9 nM and 88 nM.
On the same counts, the results for `Nc1ncc(-c2ccc(C3(c4noc(-c5cscn5)n4)CCC3)cc2)cn1` [Example 71] are 2.4 nM and 200 nM.
In the case of `Nc1ncc(-c2ccc(C3(c4noc(-c5ccc(NCCN6CCOCC6)nn5)n4)CCC3)cc2)cn1` [Example 115, [6-(3-{1-[4-(2-Amino-pyrimidin-5-yl)-phenyl]-cyclobutyl}-1,2,4-oxadiazol-5-yl)-pyridazin-3-yl]-(2-morpholin-4-yl-ethyl)-amine], the IC50 in test [1] was determined as 3.3 nM; in test [2] (Homo sapiens) it was 140 nM.
`Nc1ncc(-c2ccc(C3(c4noc(-c5cnn(C6CCS(=O)(=O)C6)c5)n4)CCC3)cc2)cn1` (centres unmarked) [Example 226, 5-[4-(1-{5-[1-(1,1-Dioxo-tetrahydro-1lambda6-thiophen-3-yl)-1H-pyrazol-4-yl]-[1,2,4]oxadiazol-3-yl}-cyclobutyl)-phenyl]-pyrimidin-2-ylamine]: the IC50 in test [1] amounted to 1.2 nM; in test [2] (Homo sapiens), 45 nM.
The like results for `COCCNc1ccc(-c2nc(C3(c4ccc(-c5cnc(N)nc5)cc4)CCC3)no2)nn1` [Example 111, [6-(3-{1-[4-(2-amino-pyrimidin-5-yl)-phenyl]-cyclobutyl}-1,2,4-oxadiazol-5-yl)-pyridazin-3-yl]-(2-methoxy-ethyl)-amine] were, in that order, 1.2 nM and 32 nM.
The like results for `N#Cc1ccc(-c2nc(C3(c4ccc(-c5cnc(N)nc5)cc4)CCC3)no2)nc1` [Example 186, 6-(3-{1-[4-(2-Amino-pyrimidin-5-yl)-phenyl]-cyclobutyl}-1,2,4-oxadiazol-5-yl)-nicotinonitrile] were, in that order, 12 nM and 710 nM.
On the same counts, the results for `Nc1ncc(-c2ccc(C3(c4noc(-c5nc[nH]n5)n4)CCC3)cc2)cn1` [Example 156, 5-(4-{1-[5-(2H-1,2,4-Triazol-3-yl)-1,2,4-oxadiazol-3-yl]-cyclobutyl}-phenyl)-pyrimidin-2-ylamine] are 13 nM and more than 5000 nM.
On to `Cc1cc(C)c(-c2nc(C3(c4ccc(-c5cnc(N)nc5)cc4)CCC3)no2)c(=O)[nH]1` [Example 58, 3-(3-{1-[4-(2-Amino-pyrimidin-5-yl)-phenyl]-cyclobutyl}-1,2,4-oxadiazol-5-yl)-4,6-dimethyl-1H-pyridin-2-one], for which the IC50 in test [1] is 2 nM; in test [2] (Homo sapiens), more than 5000 nM.
Regarding `Nc1ncc(-c2ccc(C3(c4noc(-c5ccc(C(=O)NCCO)nc5)n4)CCC3)cc2)cn1` [Example 77, 5-(3-{1-[4-(2-Amino-pyrimidin-5-yl)-phenyl]-cyclobutyl}-1,2,4-oxadiazol-5-yl)-pyridine-2-carboxylic acid (2-hydroxy-ethyl)-amide], the IC50 was 2.6 nM in test [1] and 160 nM in test [2] (Homo sapiens).
On the same counts, the results for `CCNC(=O)c1nc(C2(c3ccc(-c4cnc(N)nc4)cc3)CCC2)no1` [Example 13, 3-{1-[4-(2-Amino-pyrimidin-5-yl)-phenyl]-cyclobutyl}-1,2,4-oxadiazole-5-carboxylic acid ethylamide] are 170 nM and more than 5000 nM.
As for `Cn1nccc1-c1nc(C2(c3ccc(-c4cnc(N)nc4)cc3)CCC2)no1` [Example 57, 5-(4-{1-[5-(2-methyl-2H-pyrazol-3-yl)-1,2,4-oxadiazol-3-yl]-cyclobutyl}-phenyl)-pyrimidin-2-ylamine], the figures for the IC50 in test [1] and in test [2] (Homo sapiens) were 1.8 nM and 45 nM, respectively.
The like results for `COC1CCN(C(=O)Cn2cc(-c3nc(C4(c5ccc(-c6cnc(N)nc6)cc5)CCC4)no3)cn2)CC1` [Example 234, 2-[4-(3-{1-[4-(2-Amino-pyrimidin-5-yl)-phenyl]-cyclobutyl}-[1,2,4]oxadiazol-5-yl)-pyrazol-1-yl]-1-(4-methoxy-piperidin-1-yl)-ethanone] were, in that order, 3.5 nM and 82 nM.
With `Nc1ncc(-c2ccc(C3(c4noc(-c5ccc(C(=O)N6CCC(F)(F)CC6)nc5)n4)CCC3)cc2)cn1` [Example 59, [5-(3-{1-[4-(2-amino-pyrimidin-5-yl)-phenyl]-cyclobutyl}-1,2,4-oxadiazol-5-yl)-pyridin-2-yl]-(4,4-difluoro-piperidin-1-yl)-methanone], the IC50 in test [1] is 5.1 nM; in test [2] (Homo sapiens), 130 nM.
For the molecule `Nc1ncc(-c2ccc(C3(c4noc(N5CCCC5)n4)CCC3)cc2)cn1` [Example 12, 5-{4-[1-(5-Pyrrolidin-1-yl-1,2,4-oxadiazol-3-yl)-cyclobutyl]-phenyl}-pyrimidin-2-ylamine], the half-maximal inhibitory concentration (IC50) worked out at 8.3 nM in test [1] and 470 nM in test [2] (Homo sapiens).
As to `Cn1cc(-c2nc(C3(c4ccc(-c5ccc(C6CC6)nc5)cc4)CCC3)no2)cn1` [Example 248, 2-Cyclopropyl-5-(4-{1-[5-(1-methyl-1H-pyrazol-4-yl)-[1,2,4]oxadiazol-3-yl]-cyclobutyl}-phenyl)-pyridine], the IC50 in test [1] is 730 nM; in test [2] (Homo sapiens), more than 5000 nM.
Consider `COc1ccc(-c2nc(C3(c4ccc(-c5cnc(N)nc5)cc4)CCC3)no2)cc1OC` [Example 50, 5-(4-{1-[5-(3,4-Dimethoxy-phenyl)-1,2,4-oxadiazol-3-yl]-cyclobutyl}-phenyl)-pyrimidin-2-ylamine], for which the values for the IC50 in test [1] and in test [2] (Homo sapiens) were 4.4 nM and 490 nM, respectively.
On to `Cn1ccc(-c2nc(C3(c4ccc(-c5cnc(N)nc5)cc4)CCC3)no2)cc1=O` [Example 21, 4-(3-{1-[4-(2-Amino-pyrimidin-5-yl)-phenyl]-cyclobutyl}-1,2,4-oxadiazol-5-yl)-1-methyl-1H-pyridin-2-one], for which the figures for the IC50 in test [1] and in test [2] (Homo sapiens) were 3.1 nM and 160 nM, respectively.
On the same counts, the results for `Nc1ncc(-c2ccc(C3(c4noc(-c5cnn(CC(=O)NC6CCNCC6)c5)n4)CCC3)cc2)cn1` [Example 237, 2-[4-(3-{1-[4-(2-Amino-pyrimidin-5-yl)-phenyl]-cyclobutyl}-[1,2,4]oxadiazol-5-yl)-pyrazol-1-yl]-N-piperidin-4-yl-acetamide] are 2 nM and more than 5000 nM.
Regarding `CCNC(=O)Cn1cc(-c2nc(C3(c4ccc(-c5cnc(N)nc5)cc4)CCC3)no2)cn1` [Example 204, 2-[4-(3-{1-[4-(2-Amino-pyrimidin-5-yl)-phenyl]-cyclobutyl}-[1,2,4]oxadiazol-5-yl)-pyrazol-1-yl]-N-ethyl-acetamide], the IC50 amounted to 4.5 nM in test [1] and 75 nM in test [2].
In the case of `CC(C)N1CCN(C(=O)Cn2cc(-c3nc(C4(c5ccc(-c6cnc(N)nc6)cc5)CCC4)no3)cn2)CC1` [Example 243, 2-[4-(3-{1-[4-(2-Amino-pyrimidin-5-yl)-phenyl]-cyclobutyl}-[1,2,4]oxadiazol-5-yl)-pyrazol-1-yl]-1-(4-isopropyl-piperazin-1-yl)-ethanone], the IC50 was 8.5 nM in test [1] and 200 nM in test [2] (Homo sapiens).
On the same counts, the results for `Cn1cc(-c2nc(C3(c4ccc(-c5cnc(N)nc5)cc4F)CCC3)no2)cn1` [Example 117, 5-(3-Fluoro-4-{1-[5-(1-methyl-1H-pyrazol-4-yl)-1,2,4-oxadiazol-3-yl]-cyclobutyl}-phenyl)-pyrimidin-2-ylamine] are 2.6 nM and 140 nM.
